Measured values published in publication PMC9841532, “Exploring the Effect of Halogenation in a Series of Potent and Selective A2B Adenosine Receptor Antagonists” (Journal of Medicinal Chemistry, 2022).

Tests used:
[1] = molecular target: T1, hA2BAR (Homo sapiens, UniProt P29275); assay: Radioligand binding competition, [3H]DPCPX, membranes from HEK-293-A2B cells; parameters: Exp. dG: unit not given here; settings: for Ki: read-out: Ki hA2B; for % at 1 μM hA2B (percentage displacement of specific binding): [3H]DPCPX, human HEK-293 cells, n = 2
T1 construct: host or cells: HEK-293 (HEK-293-A2B) cell membranes
T1 sequence (P29275 1-332): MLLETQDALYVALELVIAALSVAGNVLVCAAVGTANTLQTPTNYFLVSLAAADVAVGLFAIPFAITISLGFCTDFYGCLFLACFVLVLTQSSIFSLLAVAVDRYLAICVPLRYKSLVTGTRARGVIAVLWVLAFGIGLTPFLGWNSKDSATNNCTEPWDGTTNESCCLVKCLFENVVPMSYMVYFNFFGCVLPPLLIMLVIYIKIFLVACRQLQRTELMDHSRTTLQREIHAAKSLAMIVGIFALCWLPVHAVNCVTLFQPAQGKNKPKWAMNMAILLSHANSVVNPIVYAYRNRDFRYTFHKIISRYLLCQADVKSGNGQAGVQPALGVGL
Description: (§1) All ligands reported in Tables 1–5 were obtained and tested as racemic mixtures. The whole set was evaluated in silico with a combination of a Rdkit[37] PAINS filter and Instant JChem from Chemaxon (https://www.chemaxon.com), to rule out the possibility that these ligands can be promiscuous pan-assay interference compounds (PAINS) and to assess their bioavailability, respectively. […] The stereoisomers of selected compounds were obtained by chiral resolution and tested at the four human AR subtypes in their enantiopure forms (Table 6).
(§2) A brief description is given below. […] Non-specific binding was determined in the presence of 10 μM R-PIA. The reaction mixture was incubated at 25 °C for 60 min. […] The reaction mixture was incubated at 25 °C for 30 min. […] The reaction mixture was incubated at 25 °C for 30 min. […] Non-specific binding was determined in the presence of 100 μM R-PIA. […] After the incubation time, membranes were washed and filtered and radioactivity was detected in a MicroBeta TriLux reader (PerkinElmer).

[2] = molecular target: T2, hA2AAR (Homo sapiens, UniProt P29274); assay: Radioligand binding competition, [3H]ZM241385, membranes from HeLa-A2A cells; settings: 1 μM, [3H]ZM241385, human HeLa cells, n = 2
T2 construct: expressed in transfected cells; host or cells: HeLa (HeLa-A2A) cell membranes
T2 sequence (P29274 whole entry): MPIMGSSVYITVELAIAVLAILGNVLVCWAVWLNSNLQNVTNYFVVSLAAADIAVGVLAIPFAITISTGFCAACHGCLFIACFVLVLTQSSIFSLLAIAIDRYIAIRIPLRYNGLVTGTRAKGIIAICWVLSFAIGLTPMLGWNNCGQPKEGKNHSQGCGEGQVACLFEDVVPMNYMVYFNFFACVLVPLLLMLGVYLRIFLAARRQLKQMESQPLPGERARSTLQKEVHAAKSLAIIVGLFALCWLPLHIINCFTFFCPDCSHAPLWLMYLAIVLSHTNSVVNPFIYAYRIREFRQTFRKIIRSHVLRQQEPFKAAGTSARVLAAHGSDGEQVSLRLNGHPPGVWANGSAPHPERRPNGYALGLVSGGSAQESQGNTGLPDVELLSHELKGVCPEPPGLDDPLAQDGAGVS
Description: as §1, §2

[3] = molecular target: T3, hA1AR (Homo sapiens, UniProt P30542); assay: Radioligand binding competition, [3H]DPCPX, membranes from CHO-A1 cells; settings: 1 μM, [3H]DPCPX, human CHO cells, n = 2
T3 sequence (P30542 1-326): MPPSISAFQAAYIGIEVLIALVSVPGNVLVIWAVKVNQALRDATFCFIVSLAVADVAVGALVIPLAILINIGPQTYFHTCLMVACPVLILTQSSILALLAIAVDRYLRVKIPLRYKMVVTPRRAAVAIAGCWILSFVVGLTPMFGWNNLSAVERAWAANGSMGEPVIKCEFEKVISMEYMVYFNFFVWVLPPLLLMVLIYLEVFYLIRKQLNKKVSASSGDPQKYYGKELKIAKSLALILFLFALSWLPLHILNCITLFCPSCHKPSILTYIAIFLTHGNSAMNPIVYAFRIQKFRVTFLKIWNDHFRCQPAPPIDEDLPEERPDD
Description: as §1, §2

[4] = molecular target: T4, hA3AR (Homo sapiens, UniProt P0DMS8); assay: Radioligand binding competition, [3H]NECA, membranes from HeLa-A3 cells; settings: for % at 1 μM hA3 (percentage displacement of specific binding): [3H]NECA, human HeLa cells, n = 2
T4 construct: expressed in transfected cells; host or cells: HeLa (HeLa-A3) cell membranes
T4 sequence (P0DMS8 1-318): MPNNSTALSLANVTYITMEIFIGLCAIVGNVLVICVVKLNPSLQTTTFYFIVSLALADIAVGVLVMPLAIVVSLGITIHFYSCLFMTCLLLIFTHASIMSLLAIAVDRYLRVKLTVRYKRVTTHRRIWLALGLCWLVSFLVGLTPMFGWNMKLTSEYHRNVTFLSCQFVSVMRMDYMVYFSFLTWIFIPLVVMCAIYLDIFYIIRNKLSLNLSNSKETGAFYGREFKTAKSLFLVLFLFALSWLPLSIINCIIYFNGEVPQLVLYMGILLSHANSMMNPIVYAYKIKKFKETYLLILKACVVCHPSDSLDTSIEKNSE
Description: as §1, §2

[5] = displacement of specific [3H]DPCPX binding in human HEK-293 cells, n = 3

Row | Structure (SMILES) | Ki [1, 5] [µM] | % at 1 μM hA2A (percentage displacement of specific binding) [2] [%] | % at 1 μM hA1 (percentage displacement of specific binding) [3] [%] | % at 1 μM hA3 (percentage displacement of specific binding) [4] [%] | % at 1 μM hA2B (percentage displacement of specific binding) [1] [%] | Ki hA2B [1, 5] | Exp. dG ([1]; experimental binding free energy, Supplementary Table S3, unit not given (errors in kcal/mol)) | Ki ([4]; displacement of specific [3H]NECA binding in human HeLa cells, n = 3, read-out: Ki hA3) [µM]
1 | CCOC(=O)C1=C(C)Nc2nc3cc(F)c(F)cc3n2C1c1ccoc1 (centres unmarked) [14c] | 0.0282 ± 0.0008 | 36 | 22 | 17 |  |  |  | 
2 | CCOC(=O)C1=C(C)Nc2nc3cc(F)c(F)cc3n2C1c1cccs1 (centres unmarked) [14e] |  | 3 | 2 | 5 | 25 |  |  | 
3 | CC1=C(C(=O)OC(C)C)C(c2ccsc2)n2c(nc3cc(F)c(F)cc32)N1 (centres unmarked) [14h] |  | 3 | 1 | 4 | 43 |  |  | 
4 | CC1=C(C(=O)OC(C)C)C(c2ccco2)n2c(nc3cc(Cl)c(Cl)cc32)N1 (centres unmarked) [14j] | 0.117 ± 0.005 | 12 | 43 | 7 |  |  |  | 
5 | CC1=C(C(=O)OC(C)C)C(c2ccoc2)n2c(nc3cc(Cl)c(Cl)cc32)N1 (centres unmarked) [14l] |  | 31 | 4 | 8 | 36 |  |  | 
6 | CCOC(=O)C1=C(C)Nc2nc3cc(Br)ccc3n2[C@@H]1c1ccoc1 [(R)-16s] | 0.00117 ± 0.0001 |  | 10 | 14 |  |  |  | 
7 | CC1=C(C(=O)OC(C)C)[C@@H](c2ccco2)n2c(nc3cc(F)ccc32)N1 [(S)-16b] | 0.00094 ± 0.0001 |  | 26 | 12 |  | sub-nanomolar |  | 
8 | CC1=C(C(=O)OC(C)C)C(c2cocn2)n2c(nc3ccccc32)N1 (centres unmarked) [X, reference compound] |  |  |  |  |  |  | -10.04 | 
9 | Nc1nc(NCCc2ccc(O)cc2)nc2nc(-c3ccco3)nn12 [ZM241385, 4-(2-[7-amino-2-(2-furyl)[1,2,4]triazolo[2,3-a][1,3,5]triazin-5-ylamino]ethyl)phenol, reference compound] |  |  |  |  |  |  |  | 0.863 ± 0.004

Second part, led by results:

Row | Ki [1, 5] [µM] | % at 1 μM hA2A (percentage displacement of specific binding) [2] [%] | % at 1 μM hA1 (percentage displacement of specific binding) [3] [%] | % at 1 μM hA3 (percentage displacement of specific binding) [4] [%] | % at 1 μM hA2B (percentage displacement of specific binding) [1] [%] | Ki hA2B [1, 5] | Exp. dG ([1]; experimental binding free energy, Supplementary Table S3, unit not given (errors in kcal/mol)) | Structure (SMILES) | Ki ([4]; displacement of specific [3H]NECA binding in human HeLa cells, n = 3, read-out: Ki hA3) [µM]
10 | 0.0441 ± 0.0017 | 2 | 1 | 2 |  |  |  | CCOC(=O)C1=C(C)Nc2nc3cc(F)c(F)cc3n2C1c1ccco1 (centres unmarked) [14a] | 
11 | 0.0529 ± 0.0015 | 16 | 17 | 20 |  |  |  | CC1=C(C(=O)OC(C)C)C(c2ccoc2)n2c(nc3cc(F)c(F)cc32)N1 (centres unmarked) [14d] | 
12 |  | 1 | 1 | 10 | 1 |  |  | CC1=C(C(=O)OC(C)C)C(c2cccs2)n2c(nc3cc(F)c(F)cc32)N1 (centres unmarked) [14f] | 
13 | 0.519 ± 0.007 | 1 | 1 | 5 |  |  |  | CCOC(=O)C1=C(C)Nc2nc3cc(F)c(F)cc3n2C1c1ccsc1 (centres unmarked) [14g] | 
14 |  | 5 | 2 | 1 | 9 |  |  | CCOC(=O)C1=C(C)Nc2nc3cc(Cl)c(Cl)cc3n2C1c1ccco1 (centres unmarked) [14i] | 
15 | 0.0547 ± 0.0032 | 34 | 33 | 6 |  |  |  | CCOC(=O)C1=C(C)Nc2nc3cc(Cl)c(Cl)cc3n2C1c1ccoc1 (centres unmarked) [14k] | 
16 | 0.00297 ± 0.0004 |  | 32 | 6 |  |  |  | CC1=C(C(=O)OC(C)C)[C@@H](c2ccco2)n2c(nc3cc(Br)ccc32)N1 [(S)-16r] | 
